Reference: patent publication US6372919B1 (DOV Pharmaceutical, Inc., priority 2001, dated 2002)

Assays:
[1] = molecular target: norepinephrine uptake site (norepinephrine transporter), rat forebrain membranes (Rattus norvegicus, UniProt Q9WTR4); conditions: comparison of Table 1 Ki values
Protocol: Reactions were carried out in 50 mM TRIS-HCl (pH 7.4), containing 300 mM NaCl and 5 mM KCl at 0° C. to 4 ° C for 4 hours. The reaction was terminated by rapid vacuum filtration onto glass fiber filters. Radioactivity trapped in the filters was determined and compared to control values in order to ascertain the interactions of the test compound with the norepinephrine uptake site.

[2] = molecular target: T1, serotonin transporter binding site, rat forebrain membranes (Rattus norvegicus, UniProt P31652); test: Serotonin Transporter Binding Assay ([3H]-citalopram); conditions: comparison of Table 2 Ki values
T1 construct: The receptor source was rat forebrain membranes; from tissue; host or cells: rat forebrain membranes
T1 sequence (P31652 whole entry): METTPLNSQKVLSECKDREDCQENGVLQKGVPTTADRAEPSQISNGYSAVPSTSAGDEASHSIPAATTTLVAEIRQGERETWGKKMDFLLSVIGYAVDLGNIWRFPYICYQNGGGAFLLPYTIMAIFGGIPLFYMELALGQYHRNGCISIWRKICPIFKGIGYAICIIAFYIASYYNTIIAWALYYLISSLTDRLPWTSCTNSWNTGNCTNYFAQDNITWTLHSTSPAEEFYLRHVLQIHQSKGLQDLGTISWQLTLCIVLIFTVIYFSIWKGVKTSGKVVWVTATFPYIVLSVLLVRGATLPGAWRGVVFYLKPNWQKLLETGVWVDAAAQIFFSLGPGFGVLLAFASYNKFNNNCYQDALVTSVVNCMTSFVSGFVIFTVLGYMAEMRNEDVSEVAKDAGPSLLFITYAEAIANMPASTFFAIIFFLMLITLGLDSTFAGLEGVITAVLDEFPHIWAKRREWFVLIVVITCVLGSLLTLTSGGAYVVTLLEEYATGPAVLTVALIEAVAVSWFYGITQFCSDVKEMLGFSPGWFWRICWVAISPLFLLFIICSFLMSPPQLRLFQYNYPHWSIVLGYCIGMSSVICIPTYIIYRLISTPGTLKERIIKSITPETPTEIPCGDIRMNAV
Protocol: Reactions were carried out in 50 mM TRIS-HCl (pH 7.4) containing 120 mM NaCl and 5 mM KCl at 25° C. for 60 minutes. The reaction was terminated by rapid vacuum filtration onto glass fiber filters. Radioactivity trapped in the filters was determined using liquid scintillation spectrometry and compared to control values in order to ascertain any interactions of test compound with the serotonin transporter binding site.

Chain of norepinephrine uptake site (norepinephrine transporter), rat forebrain membranes (Q9WTR4 1-597): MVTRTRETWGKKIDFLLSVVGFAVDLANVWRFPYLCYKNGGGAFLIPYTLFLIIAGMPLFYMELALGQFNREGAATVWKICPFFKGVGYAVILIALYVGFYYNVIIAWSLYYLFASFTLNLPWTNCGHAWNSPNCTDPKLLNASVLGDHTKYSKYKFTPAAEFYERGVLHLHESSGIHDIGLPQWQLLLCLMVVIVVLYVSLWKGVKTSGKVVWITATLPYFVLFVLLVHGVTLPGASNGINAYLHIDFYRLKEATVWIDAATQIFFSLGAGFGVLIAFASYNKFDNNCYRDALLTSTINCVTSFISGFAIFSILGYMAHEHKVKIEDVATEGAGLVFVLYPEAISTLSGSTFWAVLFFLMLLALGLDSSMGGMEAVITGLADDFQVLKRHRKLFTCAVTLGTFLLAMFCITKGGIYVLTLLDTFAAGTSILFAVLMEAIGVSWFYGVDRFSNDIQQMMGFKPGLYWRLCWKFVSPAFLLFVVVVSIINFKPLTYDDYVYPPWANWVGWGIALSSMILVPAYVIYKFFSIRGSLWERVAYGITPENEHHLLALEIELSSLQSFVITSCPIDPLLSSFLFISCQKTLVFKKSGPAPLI

## Cl.Clc1ccc([C@@]23CNC[C@@H]2C3)cc1Cl (single isomer, unassigned) [(+)-1-(3,4-dichlorophenyl)-3-azabicyclo[3.1.0]hexane hydrochloride]
[1]
  affinity for the norepinephrine uptake site compared with (±)-1-(3,4-dichlorophenyl)-3-azabicyclo[3.1.0]hexane HCl: significantly greater affinity
[2]
  affinity for the serotonin uptake site compared with (±)-1-(3,4-dichlorophenyl)-3-azabicyclo[3.1.0]hexane HCl: significantly greater affinity
